Results reported in patent US20060069010A1, “Detoxification depot for Alzheimer's disease” (Senicure LLC, priority 2003, published 2006).
Square brackets hold non-standard residues; d marks the D form. Ends that are not written are not given here.

Columns and labels:
[1] = tested on: Aβ; conditions: after 1 day of treatment; on the order of 500 ng/g tissue; cited from earlier work
[2] = molecular target: T1, biotinylated Aβ^1-40 peptide (Homo sapiens, UniProt P05067); experiment: direct ELISA, plate-immobilised capture peptide probed with biotinylated Aβ peptide; format: binding; conditions: 1 μg/well capture peptide, 1 μg/ml biotinylated Aβ, 2 hours; compared to scrambled or irrelevant control peptide (FIG. 1a)
T1 construct: biotinylated Aβ^1-40 peptide (1.7 μg/ml) at 37° C; purchased
T1 sequence (P05067 672-711): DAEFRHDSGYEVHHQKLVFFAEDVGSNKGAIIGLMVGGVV
Protocol: (§1) FIG. 1a graphically illustrates binding of biotinylated Aβ^1-42 and biotinylated Aβ^1-40 peptide by RI peptide. 96-well plate was coated with the capture peptide (1 μg/well of retro-inverso [RI], scrambled [SCR] or an irrelevant control peptide), blocked with gelatin and probed with 1 μg/ml of biotinylated Aβ peptide for 2 hours and streptavidin peroxidase for 1 hour. Experiments were repeated and were calculated as Mean±SE (N=2) and expressed as pmols Aβ^1-42/ml of binding solution. Graded concentrations of biotinylated Aβ^1-42 peptide was used as a calibration standard.
(§2) Testing the binding and stability of biotinylated Aβ peptides in binding solution. The ability of the biotinylated, nt-bAP, which is represented by Aβ peptides (1-42 and 1-40) to bind the binding element, the retro inverso peptide (RI) was investigated on a direct ELISA as described at the end of this section. RI, scrambled or an irrelevant peptide, immobilized on an ELISA plate was allowed to bind biotinylated Aβ peptides, 1-42 or 1-40.

[3] = molecular target: T2, biotinylated Aβ^1-42 peptide (Homo sapiens, UniProt P05067); experiment: as above; format: binding; conditions: 1 μg/well capture peptide, 1 μg/ml biotinylated Aβ, 2 hours; compared to scrambled or irrelevant control peptide (FIG. 1a)
T2 construct: biotinylated Aβ^1-42 peptide (1.7 μg/ml) at 37° C; purchased
T2 sequence (P05067 672-713): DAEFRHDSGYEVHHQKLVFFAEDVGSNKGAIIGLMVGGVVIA
Protocol: as §1, §2

[4] = tested on: nt-bAP; conditions: according to the thioflavin assay (Zhang et al.); cited from earlier work
Sequence of nt-bAP (P05067 672-711 limits assumed): as the sequence (P05067 672-711) above

Sequence of Aβ (P05067 672-711 limits assumed): as the sequence (P05067 672-711) above

GM1
levels of Aβ in brain [1]: reduced in half

phe-phe-val-leu-lys-Cys ([dF][dF][dV][dL][dK][dC]-NH2; not fully specified; printed as phe-phe-val-leu-lys-Cys) [RI peptide]
binding of biotinylated Aβ^1-40 by capture peptide [2]: significant and specific binding
binding of biotinylated Aβ^1-42 by capture peptide [3]: significant and specific binding

gelsolin
levels of Aβ in brain [1]: reduced in half

phe-phe-val-leu-lys [ffvlk]
toxicity of aggregates of binding element with nt-bAP [4]: less toxic than nt-bAP itself
